Experiments:
PC3 cells = assay: Cell viability IC50 in PC3 cells; format: cell-based; conditions: Homo sapiens, PC-3
MIA PaCa-2 cell = assay: Transwell cell migration and invasion assays; format: cell-based, human
Method: (§1) Cell viability was measured by Thiazolyl Blue Tetrazolium Blue (MTT) colorimetric assay (Sigma). Cell migration and invasion assays were performed in Transwell chambers (Corning) coated with and without Matrigel (BD Bioscience) respectively. 20% FBS and 0.2 ng/ml EGF were used as chemoattractant. 12 h (migration) or 24 h (invasion) after cells were seeded on top of the membrane, penetrating cells were stained with PI and counted under confocal microscope.

[1] = test system: MIA PaCa-2 orthotopic tumors; assay: Orthotopic mouse model of pancreatic cancer (MIA PaCa-2 luc/mCherry); format: in vivo
Method: In vivo study in orthotopic mouse model: All animal experiments were conducted following protocols approved by Purdue Animal Care and Use Committee (PACUC). NOD/scid/IL2R γ null (NSG) mice were purchased from In Vivo Therapeutics Core at Indiana University Simon Cancer Center (Indiana University, IN) under a Material Transfer Agreement with Jackson Laboratories, Inc. Orthotopic mouse model of pancreatic cancer was established following previously described protocol (Gu D, et al. (2013) Mol Cancer Ther 12(6):1038-1048.). MIA PaCa-2 cells with stable expression of luciferase and mCherry were collected and suspended at a concentration of 10×10^6 cells/ml. A total of 5×10^5 tumor cells in 50 μl medium was directly injected into the pancreas of NSG mice at 4-6 weeks old. After recovery from surgery, tumor growth was monitored by bioluminescent imaging using In Vivo Imaging System (IVIS).
In these studies, mice were randomly divided into two groups. For the treatment with avasimibe at 15 mg/kg, intraperitoneal (IP) injection was used on a daily base, starting one week after tumor cell implantation. After treated for 4 weeks, all the mice were sacrificed. Tumors and metastatic lesions in abdominal cavity, lymph nodes, liver, spleen, kidney, lung and heat were visualized with IVIS by mCherry fluorescent signal. Tumor volume and weight were measured ex vivo. Histological examination was performed to tumor and organ tissue slides after stained with Hematoxylin and eosin (H&E).
Murine paraffin-embedded slides were deparaffinized and rehydrated. Then antigens were retrieved in antigen unmasking solution (Vector Laboratories) with a 2100-Retriever (PickCell Laboratories). Samples were used to TUNEL assay (Roche, 11684817910) according to manufacturer's protocol. Fluorescent images were taken using Nikon A1R confocal microscopy under 40× objective.

pancreatic cancer cells [2] = assay: Biochemical assay of free cholesterol in cells; format: cell-based, human; conditions: low to high concentration
Method: Lipid extraction from cell pellets and tissues was performed according to Folch et al (Folch J et al. (1957) J Biol Chem 226(1):497-509.). Cells with indicated treatments were collected and counted. CE and free cholesterol were measured according to the manufacturer's protocol (Amplex Red Cholesterol kit from Molecular Probes), and finally normalized by cell number.

MIA PaCa-2 = assay: MTT cell viability, MIA PaCa-2; format: cell-based, human
Method: as §1

[3] = biological target: HSA (human serum albumin) (Homo sapiens, UniProt P02768); assay: Avasimibe binding to HSA: circular dichroism, Trp-214 fluorescence quenching, warfarin competitive binding
Sequence of HSA (human serum albumin) (P02768 25-609): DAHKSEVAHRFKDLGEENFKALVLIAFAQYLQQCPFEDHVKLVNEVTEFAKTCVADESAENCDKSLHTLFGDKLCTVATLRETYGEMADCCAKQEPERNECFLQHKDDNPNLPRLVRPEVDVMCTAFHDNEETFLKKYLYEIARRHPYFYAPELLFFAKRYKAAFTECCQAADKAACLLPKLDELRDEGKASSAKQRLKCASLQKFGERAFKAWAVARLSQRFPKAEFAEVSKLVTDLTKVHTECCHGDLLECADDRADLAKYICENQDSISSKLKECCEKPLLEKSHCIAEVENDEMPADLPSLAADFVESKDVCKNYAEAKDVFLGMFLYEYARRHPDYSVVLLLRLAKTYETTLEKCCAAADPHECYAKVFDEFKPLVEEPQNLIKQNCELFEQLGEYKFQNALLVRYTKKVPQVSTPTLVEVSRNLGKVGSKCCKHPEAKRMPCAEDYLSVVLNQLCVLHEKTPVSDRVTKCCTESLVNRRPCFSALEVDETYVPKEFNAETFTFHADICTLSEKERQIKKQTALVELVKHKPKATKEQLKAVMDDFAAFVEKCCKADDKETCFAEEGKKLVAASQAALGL
Text: A quartz cell of 1 mm path length was used for spectrum measurement (190-260 nm). The spectra were collected with a data pitch of 1 nm, a scan speed of 10 nm per minute, and bandwidth of 1 nm. Each spectrum was the average of three scans.

tumors = assay: Combination of avasimibe and gemcitabine in mice with tumors; format: in vivo; conditions: molar ratio about 5:1 to about 15:1 avasimibe to gemcitabine
PANC-1 = assay: MTT cell viability, PANC-1; format: cell-based, human
Method: as §1

[4] = test system: GRP78, ATF4, CHOP in pancreatic cancer cells; assay: Immunoblotting of ER stress markers; format: cell-based, human; conditions: time course
Method: After indicated treatments, cells were harvested and lysed in AMI lysis buffer (Active Motif) supplemented with protease and phosphatase inhibitor cocktail. Protein concentration was determined using the Bio-Rad protein assay kit. Protein extraction was subjected to immunoblotting with the antibodies against PTEN (Cell Signaling, […]), HMG CoA reductase (Biovision, 3952-100), ACAT-1 (Santa Cruz, sc-69836), GRP78 (Santa Cruz, sc-13968), ATF4 (Cell Signaling, 11815), CHOP (Cell Signaling, 2895), p-ERK1/2 (Cell Signaling, 4370S), ERK1/2 (Cell Signaling, 9102), p-Akt (Cell Signaling, […]), Akt (Cell Signaling, 4691), caveolin-1 (Cell Signaling, […]), SREBP-1 (Santa Cruz, 13551), and β-actin (Sigma, A5441). β-Actin was used as loading control for normalization.

pancreatic cancer cells [5] = assay: Fluorescence imaging of DiI labeled LDL uptake; format: cell-based, human
Method: DiI labeled LDL was made following previously described method (de Smidt P C & van Berkel T J C (1990) Cancer Res 50(23):7476-7482.). Cells were cultured in medium containing 10% lipodeficient serum with or without avasimibe treatment for 2 days. Then DiI-LDL was added to the medium at 50 μg/ml for 3 hours. Fluorescence images were acquired immediately after 3 h incubation using confocal microscope. The LDL uptake was quantified using ImageJ by analyzing the area fraction of uptake LDL particles out of the total cellular area.

[6] = Tissue distribution of avasimibe by LC-MS, 2 hr post administration; format: in vivo, PC3 tumor xenograft nude mice; conditions: oral avasimibe 15 mg/kg
Method: To measure the bioavailability of avasimibe in tissues, avasimin solution in PBS (75 mg/kg, containing 15 mg/kg avasimibe) was intravenously administered to PC3 tumor xenograft nude mice (n=3) through the tail vein. avasimibe solution in PBS (15 mg/kg) was also orally administered to PC3 tumor xenograft nude mice (n=3). At 2 hr-post injection, the mice were sacrificed, and the tissues and urine were harvested and weighed. After adding PBS (100 μl per […] tissue), the tissues were homogenized using a bead based homogenizer (Precellys®24, bertin technologies). Avasimibe was extracted from the homogenized tissue solution according to the same procedure used in avasimibe extraction from blood sample. Avasimibe in the tissue, urine, and feces specimens was quantified by LC-MS using the same conditions as the blood-bioavailability study. The amounts of avasimibe were quantitatively determined based on the calibration curve of avasimibe in blood.

pancreatic cancer cells [7] = assay: CE level in pancreatic cancer cells (Raman spectromicroscopy, ESI-MS); format: cell-based, human
Method: Label-free Raman spectromicroscopy, including stimulated Raman scattering (SRS) microscopy, coherent anti-stokes Raman scattering (CARS) microscopy and spontaneous Raman spectroscopy, was performed on unstained tissue slices (˜15 μm) or cells without any processing or labeling. SRS imaging was conducted using a femtosecond laser source, with the laser beating frequency tuned to the C-H stretching vibration mode at 2845 cm−1. The typical acquisition time for a 512×512 pixel image was 1.12 second.
CARS imaging and confocal Raman spectral analysis from individual LDs were performed on a single platform as described previously (40). A 5-picosecond laser at 707 nm was used as excitation beam for Raman spectral acquisition. Acquisition time for a typical spectra from individual LDs was 20 s, with the beam power maintained around 15 mW at sample. For each specimen, at least 10 spectra from individual LDs in different locations or cells were obtained.
LD amount was quantified based on the SRS images using software ImageJ. […] Area fraction of LDs out of total area of tissues or cells were measured to quantize the LD amount. […] The percentage of CE out of total lipids was used to quantize the CE level.
Lipids were extracted as described above. Cells with indicated treatments were collected and counted. […]

[8] = Blood bioavailability / pharmacokinetics of avasimibe by LC-MS; format: in vivo, nude mice; conditions: nude, mouse, whole blood; oral avasimibe 15 mg/kg; read-out: area under curve (AUC) of avasimibe
Method: To compare the blood-bioavailability of avasimibe for oral and intravenous administrations, avasimibe solution in PBS (15 mg/kg) was orally administered to nude mice without tumors (n=3) using a plastic feeding tube (20 GA×38 mm). Avasimin solution in PBS (75 mg/kg, containing 15 mg/kg avasimibe) was intravenously administered to nude mice without tumor (n=3) through the tail vein. Blood samples (2 μl) were collected from the dorsal pedal vein at different time points post administration. […] To extract avasimibe, acetone (6 μl) was added to the blood solution, vortexed, and then the solution was centrifuged (×5000 g, 5 min). The supernatant (6 μl) was collected and dried under vacuum. The sample was stored at −20° C., and dissolved in 50 μl of methanol just before analysis. A linear standard curve of avasimibe in blood ranging of 0.01-100 μg/ml was created using the same extraction method described above. avasimibe concentration was determined using a liquid chromatography-mass spectroscopy (LC-MS) (Agilent 1200 HPLC-Agilent 6460 QQQ mass spec). […]
Based on this model, pharmacokinetic values for avasimibe delivered by intravenous administration of avasimin were determined including the initial volume of distribution, […]
The terminal and distribution half-times for two-compartment model were measured using the equations above, described in a previous report.

MIA PaCa-2 cells = assay: Annexin V/propidium iodide staining and cell cycle analysis by flow cytometry; format: cell-based, human
HPDE6 = assay: MTT cell viability, HPDE6; format: cell-based; conditions: Homo sapiens; normal cells
Method: as §1

[9] = test system: cancer cells (PC3, MIA-PaCa2, A549, HCT116) and normal cells (hVSMC, BR5); assay: Cell viability of cancer and normal cells; format: cell-based, human; conditions: conventional chemotherapeutics, comparison
[10] = 15 mg/kg per day intraperitoneally, 4 weeks

## CC(C)c1cc(C(C)C)c(CC(=O)NS(=O)(=O)Oc2c(C(C)C)cccc2C(C)C)c(C(C)C)c1 [avasimibe]
PC3 cells
  IC50: 17 µM
MIA PaCa-2 cell; transwell with Matrigel, 24 h
  cell invasion rate: significantly reduced
MIA PaCa-2 cell; transwell, 12 h
  cell migration rate: significantly reduced
[1]; 15 mg/kg per day intraperitoneally
  CE amount in tumor (SRS imaging and Raman): Reduction of CE amount
[1]; [10]
  body weight: did not induce body weight loss
  metastatic lesions in lymph nodes and distant organs: largely suppressed
  tumor size, tumor growth rate, tumor volume and weight: significantly suppressed
[1]; mouse, in vivo
  apoptotic cells in tumor tissues (TUNEL): Increased apoptotic cells
  free cholesterol in mouse pancreatic tumor tissues: Increased free cholesterol
Pancreatic cancer cells [2]
  free cholesterol levels in cells: gradually increased
MIA PaCa-2; 10 μM
  proliferation rate of MIA PaCa-2 cells: significantly reduced the proliferation rate
MIA PaCa-2; Homo sapiens, MIA PaCa-2
  IC50: 11 µM
[3]; avasimibe:HSA 16:1, warfarin:HSA 10:1
  replacement of warfarin at the primary binding site of HSA: complete replacement of warfarin
[3]; inferred from complete replacement of warfarin
  binding affinity to HSA, compared with warfarin: > 189000 M⁻¹
tumors
  effect in combination with gemcitabine: synergistic effect
PANC-1; 10 μM
  proliferation rate of PANC-1 cells: significantly reduced the proliferation rate
PANC-1; Homo sapiens, PANC-1
  IC50: 23.6 µM
[4]
  ATF4 level: increase of transcription factor ATF4 within 12 hours
  CHOP expression: appeared after 12 hour treatment and increased from 12 to 48 hour
  GRP78 expression level: gradually increased over time
Pancreatic cancer cells [5]
  uptake of DiI labeled LDL: significantly reduced uptake of LDL
[6]
  excretion of avasimibe through feces: considerable amount of avasimibe was excreted through the feces
[6]; 2 hr
  avasimibe in the tumor tissue: not detectable
  main tissue of avasimibe distribution: most avasimibe was found in the liver tissue
Pancreatic cancer cells [7]
  CE level in pancreatic cancer cells: effectively removed CE
[8]
  AUC: 3250 ng·h/mL
MIA PaCa-2 cells
  number of apoptotic cells: largely increased
HPDE6
  IC50: 52.8 µM

## Nc1ccn([C@@H]2O[C@H](CO)[C@@H](O)C2(F)F)c(=O)n1 [gemcitabine]
[9]
  selectivity of cytotoxic effect: non-selective cytotoxic effects

From patent US20160199497A1, “Cholesterol Ester-Depleting Nanomedicine for Non-toxic Cancer Chemotherapy” (Purdue Research Foundation, priority 2014, published 2016)
